Measurements as given in ChEMBL document CHEMBL6071160, “Identification of a novel 10-hydroxyevodiamine prodrug as a potent topoisomerase inhibitor with improved aqueous solubility for treatment of hepatocellular carcinoma” (Eur J Med Chem, 2024).
Active and inactive are the calls of the source. The calls are words filed in the database; no cut-off is given here.

Assays:
[1] = system: Huh-7; test: Induction of apoptosis in human Huh-7 cells assessed as viable cells at 80 nM measured after 24 hrs by Annexin-V-FITC/PI analysis (reference value: 97.46%); format: functional; conditions: read-out: Activity
[2] = Toxicity in BALB/c nude mouse subcutaneously injected with human Huh-7 cells assessed as changes in kidney tissue at 10 mg/kg, ip administered once daily measured after 14 days by H and E staining based assay; format: organism-based; conditions: in vivo, 336 h, time 14 day
[3] = system: Huh-7; test: In vivo antitumor activity against human Huh-7 cells subcutaneously injected into BALB/C nude mouse assessed as tumor growth inhibition at 10 mg/kg, ip administered once daily measured after 14 days; format: functional; conditions: Huh-7, 336 h, time 14 day, read-out: TGI
[4] = system: Huh-7; test: Induction of cell cycle arrest in human Huh-7 cells assessed as accumulation of cells at G2 phase 80 nM measured after 24 hrs by flow cytometric assay (reference value: 13.66%); format: functional
[5] = system: SK-HEP1; test: Induction of apoptosis in human SK-HEP1 cells assessed as loss of mitochondrial membrane potential by measuring JC-1 stained cells at 80 nM measured after 24 hrs by JC-1 staining based flow cytometry (reference value: 0.49%); format: functional
[6] = system: Huh-7; test: Antiproliferative activity against human Huh-7 cells assessed as inhibition of cell proliferation incubated for 72 hrs by MTT assay; format: functional, cell-based; conditions: Huh-7, 72 h
[7] = system: Huh-7; test: Induction of cell cycle arrest in human Huh-7 cells assessed as accumulation of cells at S phase 80 nM measured after 24 hrs by flow cytometric assay (reference value: 23.33%); format: functional
[8] = system: Huh-7; test: Inhibition of cell migration in human Huh-7 cells at 10 nM measured for 24 hrs by scratch wound healing assay; format: functional, cell-based
[9] = system: Huh-7; test: In vivo antitumor activity against human Huh-7 cells subcutaneously injected into BALB/C nude mouse assessed as tumor growth inhibition at 40 mg/kg, ip administered once other day measured after 14 days; format: functional; conditions: Huh-7, 336 h, time 14 day, read-out: TGI
[10] = system: SK-HEP1; test: Induction of apoptosis in human SK-HEP1 cells assessed as ROS generation by measuring DCFH2-DA stained cells at 40 nM measured after 24 hrs […] (reference value: 0.14%); format: functional
[11] = Toxicity in BALB/c nude mouse subcutaneously injected with human Huh-7 cells assessed as animal death at 10 to 20 mg/kg, ip administered once daily measured after 14 days; format: organism-based; conditions: in vivo, 336 h, dose 10-20 mg/kg, time 14 day
[12] = system: SK-HEP1; test: Induction of apoptosis in human SK-HEP1 cells assessed as early apoptotic cells at 40 nM measured after 24 hrs by Annexin-V-FITC/PI analysis (reference value: 1.45%); format: functional
[13] = Toxicity in BALB/c nude mouse subcutaneously injected with human Huh-7 cells assessed as change in white blood cells at 10 mg/kg, ip administered once daily measured after 14 days; format: organism-based; conditions: in vivo, 336 h, time 14 day
[14] = system: Huh-7; test: Induction of apoptosis in human Huh-7 cells assessed as early apoptotic cells at 20 nM measured after 24 hrs by Annexin-V-FITC/PI analysis (reference value: 1.04%); format: functional
[15] = system: Huh-7; test: Induction of apoptosis in human Huh-7 cells assessed as loss of mitochondrial membrane potential by measuring JC-1 stained cells at 20 nM measured after 24 hrs by JC-1 staining based flow cytometry (reference value: 2.27%); format: functional
[16] = system: SK-HEP1; test: Induction of apoptosis in human SK-HEP1 cells assessed as necrotic cells at 20 nM measured after 24 hrs by Annexin-V-FITC/PI analysis (reference value: 0.70%); format: functional
[17] = system: Huh-7; test: Induction of cell cycle arrest in human Huh-7 cells assessed as accumulation of cells at G1 phase 20 nM measured after 24 hrs by flow cytometric assay (reference value: 63.01%); format: functional
[18] = system: Huh-7; test: Induction of cell cycle arrest in human Huh-7 cells assessed as accumulation of cells at G1 phase 40 nM measured after 24 hrs by flow cytometric assay (reference value: 63.01%); format: functional
[19] = system: SK-HEP1; test: Inhibition of cell invasion in human SK-HEP1 cells assessed as decrease in number of cells migration into lower compartment at 20 nM measured after 24 hrs by transwell assay; format: functional, cell-based
[20] = system: SK-HEP1; test: Induction of apoptosis in human SK-HEP1 cells assessed as necrotic cells at 40 nM measured after 24 hrs by Annexin-V-FITC/PI analysis (reference value: 0.70%); format: functional
[21] = system: Huh-7; test: Induction of apoptosis in human Huh-7 cells assessed as ROS generation by measuring DCFH2-DA stained cells at 80 nM measured after 24 hrs […] (reference value: 0.45%); format: functional
[22] = Toxicity in BALB/c nude mouse subcutaneously injected with human Huh-7 cells assessed as change in body weight at 10 to 20 mg/kg, ip administered once daily measured after 14 days; format: organism-based; conditions: in vivo, 336 h, dose 10-20 mg/kg, time 14 day
[23] = system: SK-HEP1; test: Induction of cell cycle arrest in human SK-HEP1 cells assessed as accumulation of cells at G2 phase 80 nM measured after 24 hrs by flow cytometric assay (reference value: 22.41%); format: functional
[24] = system: SK-HEP1; test: Antiproliferative activity against human SK-HEP1 cells assessed as inhibition of cell proliferation incubated for 72 hrs by MTT assay; format: functional, cell-based; conditions: SK-HEP1, 72 h
[25] = system: Huh-7; test: Induction of apoptosis in human Huh-7 cells assessed as necrotic cells at 40 nM measured after 24 hrs by Annexin-V-FITC/PI analysis (reference value: 0.27%); format: functional
[26] = system: Huh-7; test: Induction of cell cycle arrest in human Huh-7 cells assessed as accumulation of cells at G2 phase 20 nM measured after 24 hrs by flow cytometric assay (reference value: 13.66%); format: functional
[27] = system: SK-HEP1; test: Induction of apoptosis in human SK-HEP1 cells assessed as necrotic cells at 80 nM measured after 24 hrs by Annexin-V-FITC/PI analysis (reference value: 0.70%); format: functional
[28] = Tmax in Sprague-Dawley rat at 10 mg/kg, ip measured upto 24 hrs by LC-MS/MS analysis; format: ADME, organism-based; conditions: in vivo
[29] = system: Huh-7; test: Induction of apoptosis in human Huh-7 cells assessed as late apoptotic cells at 40 nM measured after 24 hrs by Annexin-V-FITC/PI analysis (reference value: 1.23%); format: functional
[30] = system: HepG2; test: Antiproliferative activity against human HepG2 cells assessed as inhibition of cell proliferation incubated for 72 hrs by MTT assay; format: functional, cell-based; conditions: HepG2, 72 h
[31] = system: SK-HEP1; test: Induction of cell cycle arrest in human SK-HEP1 cells assessed as accumulation of cells at S phase 40 nM measured after 24 hrs by flow cytometric assay (reference value: 30.04%); format: functional
[32] = system: SK-HEP1; test: Inhibition of cell invasion in human SK-HEP1 cells assessed as decrease in number of cells migration into lower compartment at 40 nM measured after 24 hrs by transwell assay; format: functional, cell-based
[33] = Cmax in Sprague-Dawley rat at 10 mg/kg, ip measured upto 24 hrs by LC-MS/MS analysis; format: ADME, organism-based; conditions: in vivo
[34] = system: Huh-7; test: Induction of cell cycle arrest in human Huh-7 cells assessed as accumulation of cells at G2 phase 40 nM measured after 24 hrs by flow cytometric assay (reference value: 13.66%); format: functional

C[N+](C)(C)CCC(=O)Oc1ccc2[nH]c3c(c2c1)CCN1C(=O)c2cc(F)cc(F)c2N(c2cccc(F)c2)C31.[I-] (centres undefined)
viability at 0.08 µM [1]: 79.7% | Activity [2]: Non-Toxic | inhibition in vivo at 10 mg/kg [3]: 83.3% | Activity [4]: 86.5% | Activity [5]: 18.32% | IC50 [6]: 40 nM | Activity [7]: 6.71% | inhibition [8]: Active | inhibition in vivo at 40 mg/kg [9]: 51.1% | Activity [10]: 13.95% | Activity [11]: Non-Toxic | Activity [12]: 5.11% | Activity [13]: Non-Toxic | Activity [14]: 1.31% | Activity [15]: 2.23% | Activity [16]: 0.47% | Activity [17]: 66.72% | Activity [18]: 66.98% | inhibition [19]: Active | Activity [20]: 0.49% | Activity [21]: 17.92% | Activity [22]: Non-Toxic | Activity [23]: 68.55% | IC50 [24]: 30 nM | Activity [25]: 0.04% | Activity [26]: 5.93% | Activity [27]: 1.15% | Tmax [28]: 1.67 h | Activity [29]: 2.89% | IC50 [30]: 90 nM | Activity [31]: 31.15% | inhibition [32]: Active | Cmax [33]: 240 ng/mL | Activity [34]: 11.72%
